Experimental data reported in patent publication US20160015813A1, “NOVEL AND SYNERGISTIC COMPOSITION OF LECITHIN AND LYSOLECITHIN FOR IMPROVING BIOAVAILABILITY AND SOLUBILITY OF HYDROPHOBIC COMPOUNDS AND EXTRACTS” (priority 2014, published 2016).
Read-outs that look alike come from different tables or passages of the source.

Test: Oral bioavailability study of berberine formulation versus unformulated berberine (berberine concentration in serum)
Assay type: in vivo, Sprague Dawley rats
Settings: Sprague Dawley, rat
Experimental: The study was conducted to evaluate the bioavailability of orally administered curcuminoid compositions (Table 1 and Example. 2), formulated using a synergistic combination of lecithin and lysolecithin in Sprague Dawley rats. Compositions formulated with lecithin or lysolecithin alone were also tested along with Meriva (Batch No FG-6558). These formulations were prepared using similar procedure described in examples 2 and 3. Total of twelve (12) animals were divided into four groups having three animals in each group. The test substances were administered orally to the animals via oral gavage once at 125 mg/Kg body weight active ingredient equivalent to Active ingredient. Pre-dose or 0th time blood samples were collected from all the animals before dosing the test substance, followed by blood sampling at 0.15, 0.5, 1, 1.5, 2, 4, 8, 12 and 24 hrs after dosing the test substance by sinus orbital plexus under anesthesia. Serum was separated from blood by centrifugation and was subjected to LC-MS/MS analysis for estimation of curcumin concentration in serum samples.
The similar protocol was used for the evaluation of oral bio-availability of berberine formulation (Example. 3) in comparison with the unformulated berberine and for estimation of berberine concentration in serum samples. The berberine compound and its formulations were supplemented to the animals at a dose equivalent to 100 mg/kg bodyweight of active Berberine.

AUC(0-t) (serum, 100 mg/kg bodyweight of active Berberine, single oral administration, read-out: Oral exposures (AUClast)): 23.7 ± 7.99 ng·h/mL
Cmax (rats, single oral dose equivalent to 100 mg/kg BW berberine, berberine in serum, 6 animals): 4.2 ± 1.85 ng/mL
AUC(0-t) (rats, single oral dose equivalent to 100 mg/kg BW berberine, berberine in serum, 6 animals, read-out: AUClast (0-24 h)): 23.7 ± 7.99 ng·h/mL
SMILES: COc1ccc2cc3[n+](cc2c1OC)CCc1cc2c(cc1-3)OCO2 [LI32001, Berberine]
